We go through 30 compounds from BindingDB's records for doi:10.1021/jm0704550 (Cnrs, 2007).

The target in this test is Growth hormone secretagogue receptor type 1 (Homo sapiens, UniProt Q92847). In words: Receptor Binding Studies.

As usually defined, the EC50 is the midpoint of the concentration-response curve. A high value points to weaker potency. As a reminder, the IC50 is the concentration that gives 50% inhibition. A high value points to weaker potency in that assay.

Sequence of Growth hormone secretagogue receptor type 1 (Q92847 whole entry): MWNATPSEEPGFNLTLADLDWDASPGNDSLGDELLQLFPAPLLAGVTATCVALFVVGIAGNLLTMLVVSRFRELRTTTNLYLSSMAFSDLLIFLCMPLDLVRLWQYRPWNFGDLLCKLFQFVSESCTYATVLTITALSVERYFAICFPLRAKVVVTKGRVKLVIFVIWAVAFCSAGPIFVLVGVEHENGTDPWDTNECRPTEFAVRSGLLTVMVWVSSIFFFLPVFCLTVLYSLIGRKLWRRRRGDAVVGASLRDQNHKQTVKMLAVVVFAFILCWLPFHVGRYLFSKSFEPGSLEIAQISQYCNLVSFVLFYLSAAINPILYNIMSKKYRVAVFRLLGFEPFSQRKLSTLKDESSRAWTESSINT

`CCc1ccc(Cn2c(CCc3ccccc3)nnc2[C@@H](Cc2c[nH]c3ccccc23)NC(=O)C2CNCCN2)cc1` (stereo partly drawn) [N-[(1R)-1-{4-[(4-ethylphenyl)methyl]-5-(2-phenylethyl)-4H-1,2,4-triazol-3-yl}-2-(1H-indol-3-yl)ethyl]piperazine-2-carboxamide] gave a concentration giving a half-maximal response (EC50) of 143 nM and an IC50 of 178 nM. `COc1ccc(Cn2c(CCc3c[nH]c4ccccc34)nnc2[C@@H](Cc2c[nH]c3ccccc23)NC(=O)C2CCCCN2)c(OC)c1` (stereo partly drawn) [N-[(1R)-1-{4-[(2,4-dimethoxyphenyl)methyl]-5-[2-(1H-indol-3-yl)ethyl]-4H-1,2,4-triazol-3-yl}-2-(1H-indol-3-yl)ethyl]piperidine-2-carboxamide] showed a Kb of 18 nM. The compound `COc1ccc(Cn2c(CCc3c[nH]c4ccccc34)nnc2[C@@H](Cc2c[nH]c3ccccc23)NC(=O)C2CNCCN2)cc1` (stereo partly drawn) [N-[(1R)-2-(1H-indol-3-yl)-1-{5-[2-(1H-indol-3-yl)ethyl]-4-[(4-methoxyphenyl)methyl]-4H-1,2,4-triazol-3-yl}ethyl]piperazine-2-carboxamide] returned an EC50 of 8.7 nM. This counts as single-digit nanomolar. `CCc1ccc(Cn2c(CCc3ccccc3)nnc2[C@@H](Cc2c[nH]c3ccccc23)NC(=O)[C@H](C)N)cc1` [(2S)-2-amino-N-[(1R)-1-{4-[(4-ethylphenyl)methyl]-5-(2-phenylethyl)-4H-1,2,4-triazol-3-yl}-2-(1H-indol-3-yl)ethyl]propanamide] registered an IC50 (pH 7.3, 25 °C) of 275 nM. Regarding `COc1ccc(Cn2c(CCc3c[nH]c4ccccc34)nnc2[C@@H](Cc2c[nH]c3ccccc23)NC(=O)[C@H]2CCCCN2)cc1` [(2R)-N-[(1R)-2-(1H-indol-3-yl)-1-{5-[2-(1H-indol-3-yl)ethyl]-4-[(4-methoxyphenyl)methyl]-4H-1,2,4-triazol-3-yl}ethyl]piperidine-2-carboxamide], the Kb is 8 nM. `COc1ccc(Cn2c(CCc3ccccc3)nnc2[C@@H](Cc2c[nH]c3ccccc23)NC(=O)C2CNCCN2)cc1` (stereo partly drawn) [N-[(1R)-2-(1H-indol-3-yl)-1-{4-[(4-methoxyphenyl)methyl]-5-(2-phenylethyl)-4H-1,2,4-triazol-3-yl}ethyl]piperazine-2-carboxamide] came in with an EC50 of 12 nM.

The compound `COc1ccc(Cn2c(CCc3ccccc3)nnc2[C@@H](Cc2c[nH]c3ccccc23)NC(=O)C2CCOCC2)cc1` [N-[(1R)-2-(1H-indol-3-yl)-1-{4-[(4-methoxyphenyl)methyl]-5-(2-phenylethyl)-4H-1,2,4-triazol-3-yl}ethyl]oxane-4-carboxamide] gave a concentration for half-maximal inhibition (IC50) of 6 nM and a Kb of 51 nM.

`COc1ccc(Cn2c(CCc3ccccc3)nnc2[C@@H](Cc2c[nH]c3ccccc23)NC(=O)[C@@H]2CCCN2)c(OC)c1` [(2S)-N-[(1R)-1-{4-[(2,4-dimethoxyphenyl)methyl]-5-(2-phenylethyl)-4H-1,2,4-triazol-3-yl}-2-(1H-indol-3-yl)ethyl]pyrrolidine-2-carboxamide] showed a Kb (pH 7.3, 25 °C) of 32 nM.

With `COc1ccc(Cn2c(CCc3ccccc3)nnc2[C@@H](Cc2c[nH]c3ccccc23)NC(=O)[C@H](C)N)cc1` [(S)-N-((R)-1-(4-(4-Methoxybenzyl)-5-phenethyl-4H-1,2,4-triazol-3-yl)-2-(1H-indol-3-yl)ethyl)-2-aminopropanamide], the half-maximal inhibitory concentration (IC50) (pH 7.3, 25 °C) turned out to be 113 nM. `COc1ccc(Cn2c(CCc3c[nH]c4ccccc34)nnc2[C@@H](Cc2c[nH]c3ccccc23)NC(=O)[C@@H]2CCCN2)cc1` [(2S)-N-[(1R)-2-(1H-indol-3-yl)-1-{5-[2-(1H-indol-3-yl)ethyl]-4-[(4-methoxyphenyl)methyl]-4H-1,2,4-triazol-3-yl}ethyl]pyrrolidine-2-carboxamide] came in with a Kb (pH 7.3, 25 °C) of 6 nM. With `O=C(N[C@H](Cc1c[nH]c2ccccc12)c1nnc(Cc2ccccc2)n1Cc1ccccn1)C1CCNCC1` [N-[(1R)-1-[5-benzyl-4-(pyridin-2-ylmethyl)-4H-1,2,4-triazol-3-yl]-2-(1H-indol-3-yl)ethyl]piperidine-4-carboxamide], the IC50 is above 1000 nM. For the compound `COc1ccc(-n2c(CCc3ccccc3)nnc2[C@@H](Cc2c[nH]c3ccccc23)NC(=O)C2CCNCC2)c(OC)c1` [N-[(1R)-1-[4-(2,4-dimethoxyphenyl)-5-(2-phenylethyl)-4H-1,2,4-triazol-3-yl]-2-(1H-indol-3-yl)ethyl]piperidine-4-carboxamide], it took 14 nM to reach a half-maximal effect (EC50). As to `COc1ccc(Cn2c(CCc3c[nH]c4ccccc34)nnc2[C@@H](Cc2c[nH]c3ccccc23)NC(=O)[C@H]2CCCN2)cc1` [(2R)-N-[(1R)-2-(1H-indol-3-yl)-1-{5-[2-(1H-indol-3-yl)ethyl]-4-[(4-methoxyphenyl)methyl]-4H-1,2,4-triazol-3-yl}ethyl]pyrrolidine-2-carboxamide], the Kb (pH 7.3, 25 °C) was 7 nM. Turning to `COc1ccc(Cn2c(CCc3ccccc3)nnc2[C@@H](Cc2c[nH]c3ccccc23)NC(=O)CCN)cc1` [3-amino-N-[(1R)-2-(1H-indol-3-yl)-1-{4-[(4-methoxyphenyl)methyl]-5-(2-phenylethyl)-4H-1,2,4-triazol-3-yl}ethyl]propanamide], the EC50 (pH 7.3, 25 °C) was found to be 256 nM. `COc1ccc(Cn2c(CCc3c[nH]c4ccccc34)nnc2[C@@H](Cc2c[nH]c3ccccc23)NC(=O)C(C)(C)N)cc1`: where the note is “pH 7.3, 25 °C”, the Kb was found to be 4 nM. Turning to `COc1ccc(Cn2c(CCc3ccccc3)nnc2[C@@H](Cc2c[nH]c3ccccc23)NC(=O)C2CNCCN2)c(OC)c1` (stereo partly drawn) [N-[(1R)-1-{4-[(2,4-dimethoxyphenyl)methyl]-5-(2-phenylethyl)-4H-1,2,4-triazol-3-yl}-2-(1H-indol-3-yl)ethyl]piperazine-2-carboxamide], the EC50 is 19.6 nM. In turn, `COc1ccc(Cn2c(CCc3c[nH]c4ccccc34)nnc2[C@@H](Cc2c[nH]c3ccccc23)NC(=O)CN)c(OC)c1` [2-amino-N-[(1R)-1-{4-[(2,4-dimethoxyphenyl)methyl]-5-[2-(1H-indol-3-yl)ethyl]-4H-1,2,4-triazol-3-yl}-2-(1H-indol-3-yl)ethyl]acetamide] yielded a Kb (pH 7.3, 25 °C) of 27 nM. In turn, `COc1ccc(Cn2c(CCc3ccccc3)nnc2[C@@H](Cc2c[nH]c3ccccc23)NC(=O)C2CCNCC2)c(OC)c1` [N-[(1R)-1-{4-[(2,4-dimethoxyphenyl)methyl]-5-(2-phenylethyl)-4H-1,2,4-triazol-3-yl}-2-(1H-indol-3-yl)ethyl]piperidine-4-carboxamide] came in with an EC50 of 6.1 nM. With `COc1ccc(Cn2c(CCc3ccccc3)nnc2[C@@H](Cc2c[nH]c3ccccc23)NC(=O)[C@@H](N)Cc2ccccc2)cc1` [(2S)-2-amino-N-[(1R)-2-(1H-indol-3-yl)-1-{4-[(4-methoxyphenyl)methyl]-5-(2-phenylethyl)-4H-1,2,4-triazol-3-yl}ethyl]-3-phenylpropanamide], where the note is “pH 7.3, 25 °C”, the Kb was 24 nM. In the case of `COc1ccc(Cn2c(CCc3ccccc3)nnc2[C@@H](Cc2c[nH]c3ccccc23)NC(=O)[C@H]2CCCCN2)c(OC)c1` [(2R)-N-[(1R)-1-{4-[(2,4-dimethoxyphenyl)methyl]-5-(2-phenylethyl)-4H-1,2,4-triazol-3-yl}-2-(1H-indol-3-yl)ethyl]piperidine-2-carboxamide], the 50% inhibitory concentration (IC50) was found to be 134 nM. This lies in the sub-micromolar range. `COc1ccc(Cn2c(CCc3c[nH]c4ccccc34)nnc2[C@@H](Cc2c[nH]c3ccccc23)NC(=O)C2CNCCN2)c(OC)c1` (mixture of isomers) [N-[(1R)-1-{4-[(2,4-dimethoxyphenyl)methyl]-5-[2-(1H-indol-3-yl)ethyl]-4H-1,2,4-triazol-3-yl}-2-(1H-indol-3-yl)ethyl]piperazine-2-carboxamide] gave a Kb of 5 nM. Consider `CCc1ccc(Cn2c(CCc3ccccc3)nnc2[C@@H](Cc2c[nH]c3ccccc23)NC(=O)[C@@H]2CCCN2)cc1` [(2S)-N-[(1R)-1-{4-[(4-ethylphenyl)methyl]-5-(2-phenylethyl)-4H-1,2,4-triazol-3-yl}-2-(1H-indol-3-yl)ethyl]pyrrolidine-2-carboxamide], for which the IC50 (pH 7.3, 25 °C) is 490 nM.

`COc1ccc(Cn2c(CCc3c[nH]c4ccccc34)nnc2[C@@H](Cc2c[nH]c3ccccc23)NC(=O)[C@@H]2CCCN2)c(OC)c1`: the Kb (pH 7.3, 25 °C) worked out at 11 nM. `COc1ccc(Cn2c(CCc3ccccc3)nnc2[C@@H](Cc2c[nH]c3ccccc23)NC(=O)C2CCCCC2)cc1` [N-[(1R)-2-(1H-indol-3-yl)-1-{4-[(4-methoxyphenyl)methyl]-5-(2-phenylethyl)-4H-1,2,4-triazol-3-yl}ethyl]cyclohexanecarboxamide] displayed an EC50 of 390 nM. The compound `O=C(N[C@H](Cc1c[nH]c2ccccc12)c1nnc(CCc2ccccc2)n1Cc1ccccn1)C1CCCNC1` (stereo partly drawn) [N-[(1R)-2-(1H-indol-3-yl)-1-[5-(2-phenylethyl)-4-(pyridin-2-ylmethyl)-4H-1,2,4-triazol-3-yl]ethyl]piperidine-3-carboxamide] registered an IC50 (pH 7.3, 25 °C) above 1000 nM. For the setting “pH 7.3, 25 °C”, `COc1ccc(Cn2c(CCc3ccccc3)nnc2[C@@H](Cc2c[nH]c3ccccc23)NC(=O)[C@H]2CCCNC2)cc1` [(3S)-N-[(1R)-2-(1H-indol-3-yl)-1-{4-[(4-methoxyphenyl)methyl]-5-(2-phenylethyl)-4H-1,2,4-triazol-3-yl}ethyl]piperidine-3-carboxamide] registered a Kb of 10 nM. Compound `O=C(N[C@H](Cc1c[nH]c2ccccc12)c1nnc(CCc2ccccc2)n1Cc1ccco1)C1CCNCC1` [N-[(1R)-1-[4-(furan-2-ylmethyl)-5-(2-phenylethyl)-4H-1,2,4-triazol-3-yl]-2-(1H-indol-3-yl)ethyl]piperidine-4-carboxamide] showed an EC50 of 183 nM and an IC50 of 560 nM. As to `CCc1ccc(Cn2c(CCc3ccccc3)nnc2[C@@H](Cc2c[nH]c3ccccc23)NC(=O)[C@H]2CCCCN2)cc1` [(2R)-N-[(1R)-1-{4-[(4-ethylphenyl)methyl]-5-(2-phenylethyl)-4H-1,2,4-triazol-3-yl}-2-(1H-indol-3-yl)ethyl]piperidine-2-carboxamide], the half-maximal inhibitory concentration (IC50) turned out to be 375 nM. This counts as sub-micromolar. Regarding `O=C(N[C@H](Cc1c[nH]c2ccccc12)c1nnc(CCc2ccccc2)n1-c1ccccc1)[C@@H]1CCCN1` [(2S)-N-[(1R)-2-(1H-indol-3-yl)-1-[4-phenyl-5-(2-phenylethyl)-4H-1,2,4-triazol-3-yl]ethyl]pyrrolidine-2-carboxamide], under “pH 7.3, 25 °C”, the IC50 was above 1000 nM. `COc1ccc(Cn2c(CCc3ccccc3)nnc2[C@@H](Cc2c[nH]c3ccccc23)NC(=O)[C@H]2CCCN2)cc1` [(2R)-N-[(1R)-2-(1H-indol-3-yl)-1-{4-[(4-methoxyphenyl)methyl]-5-(2-phenylethyl)-4H-1,2,4-triazol-3-yl}ethyl]pyrrolidine-2-carboxamide]: for the setting “pH 7.3, 25 °C”, the IC50 stood at 32 nM and the Kb was 8 nM.
